In the NIST ThermoML archive (doi:10.1021/acs.jced.7b00347):
± gives the expanded uncertainty stated by the source.

Experiment: mn = molality of the nth substance listed, in mol/kg
Conditions: for surface tension liquid-gas: Ring tensiometer; for electrical conductivity: 100 kPa, Liquid, Alternating current cell with electrodes

CCCCCCCCCCCC[NH+](CCO)CC(C)O.[Cl-] (stereo not drawn) + O
surface tension liquid-gas (293.15 K, m1 = 1.543e-05): 59.21 ± 0.77 mN/m | surface tension liquid-gas (293.15 K, m1 = 3.087e-05): 52.72 ± 0.69 mN/m | surface tension liquid-gas (293.15 K, m1 = 3.859e-05): 50.31 ± 0.66 mN/m | surface tension liquid-gas (293.15 K, m1 = 7.717e-05): 44.02 ± 0.59 mN/m | surface tension liquid-gas (293.15 K, m1 = 0.0001544): 37.72 ± 0.52 mN/m | surface tension liquid-gas (293.15 K, m1 = 0.0002315): 34.11 ± 0.48 mN/m | surface tension liquid-gas (293.15 K, m1 = 0.0003087): 31.52 ± 0.45 mN/m | surface tension liquid-gas (293.15 K, m1 = 0.0003519): 30.47 ± 0.44 mN/m | surface tension liquid-gas (293.15 K, m1 = 0.0007717): 30.03 ± 0.44 mN/m | surface tension liquid-gas (293.15 K, m1 = 0.001543): 29.53 ± 0.43 mN/m | surface tension liquid-gas (293.15 K, m1 = 0.002315): 29.53 ± 0.43 mN/m | electrical conductivity (293.15 K, m1 = 1.54e-05): 0.00031 ± 1.8e-05 S/m | electrical conductivity (293.15 K, m1 = 3.95e-05): 0.00039 ± 2.1e-05 S/m | electrical conductivity (293.15 K, m1 = 6.35e-05): 0.00047 ± 2.6e-05 S/m | electrical conductivity (293.15 K, m1 = 8.75e-05): 0.000551 ± 3.1e-05 S/m | electrical conductivity (293.15 K, m1 = 0.0001116): 0.000631 ± 3.6e-05 S/m | electrical conductivity (293.15 K, m1 = 0.0001356): 0.000711 ± 4.1e-05 S/m | electrical conductivity (293.15 K, m1 = 0.0001596): 0.000791 ± 4.6e-05 S/m | electrical conductivity (293.15 K, m1 = 0.0001837): 0.000872 ± 5.1e-05 S/m | electrical conductivity (293.15 K, m1 = 0.0002077): 0.000952 ± 5.7e-05 S/m | electrical conductivity (293.15 K, m1 = 0.0002317): 0.00103 ± 6.2e-05 S/m | electrical conductivity (293.15 K, m1 = 0.0002558): 0.00111 ± 6.7e-05 S/m | electrical conductivity (293.15 K, m1 = 0.0002798): 0.00119 ± 7.3e-05 S/m | electrical conductivity (293.15 K, m1 = 0.0003038): 0.00127 ± 7.8e-05 S/m | electrical conductivity (293.15 K, m1 = 0.0003279): 0.00135 ± 8.3e-05 S/m | electrical conductivity (293.15 K, m1 = 0.0003519): 0.00144 ± 8.9e-05 S/m | electrical conductivity (293.15 K, m1 = 0.0003819): 0.00148 ± 9.2e-05 S/m | electrical conductivity (293.15 K, m1 = 0.0004119): 0.00153 ± 9.6e-05 S/m | electrical conductivity (293.15 K, m1 = 0.0004419): 0.00159 ± 9.9e-05 S/m | electrical conductivity (293.15 K, m1 = 0.0004719): 0.00163 ± 0.0001 S/m | electrical conductivity (293.15 K, m1 = 0.0005018): 0.00169 ± 0.00011 S/m | electrical conductivity (293.15 K, m1 = 0.0005318): 0.00174 ± 0.00011 S/m | electrical conductivity (293.15 K, m1 = 0.0005618): 0.00179 ± 0.00011 S/m | electrical conductivity (293.15 K, m1 = 0.0005918): 0.00184 ± 0.00011 S/m | electrical conductivity (293.15 K, m1 = 0.0006218): 0.00189 ± 0.00011 S/m | electrical conductivity (293.15 K, m1 = 0.0006518): 0.00194 ± 0.00011 S/m | electrical conductivity (293.15 K, m1 = 0.0006818): 0.00199 ± 0.00012 S/m | electrical conductivity (293.15 K, m1 = 0.0007118): 0.00204 ± 0.00012 S/m | electrical conductivity (293.15 K, m1 = 0.0007417): 0.00209 ± 0.00012 S/m | electrical conductivity (293.15 K, m1 = 0.0007717): 0.00214 ± 0.00012 S/m | surface tension liquid-gas (298.15 K, m1 = 1.543e-05): 54.03 ± 0.71 mN/m | surface tension liquid-gas (298.15 K, m1 = 3.087e-05): 48.02 ± 0.64 mN/m | surface tension liquid-gas (298.15 K, m1 = 3.859e-05): 45.91 ± 0.61 mN/m | surface tension liquid-gas (298.15 K, m1 = 7.717e-05): 40 ± 0.54 mN/m | surface tension liquid-gas (298.15 K, m1 = 0.0001544): 34.51 ± 0.48 mN/m | surface tension liquid-gas (298.15 K, m1 = 0.0002315): 31.42 ± 0.45 mN/m | surface tension liquid-gas (298.15 K, m1 = 0.0002932): 29.91 ± 0.44 mN/m | surface tension liquid-gas (298.15 K, m1 = 0.0007717): 29.14 ± 0.43 mN/m | surface tension liquid-gas (298.15 K, m1 = 0.001543): 28.62 ± 0.43 mN/m | surface tension liquid-gas (298.15 K, m1 = 0.002315): 28.22 ± 0.42 mN/m | surface tension liquid-gas (298.15 K, m1 = 0.003087): 28.01 ± 0.42 mN/m | electrical conductivity (298.15 K, m1 = 1.54e-05): 0.00041 ± 2.3e-05 S/m | electrical conductivity (298.15 K, m1 = 3.51e-05): 0.000488 ± 2.7e-05 S/m | electrical conductivity (298.15 K, m1 = 5.47e-05): 0.000565 ± 3.2e-05 S/m | electrical conductivity (298.15 K, m1 = 7.43e-05): 0.000643 ± 3.8e-05 S/m | electrical conductivity (298.15 K, m1 = 9.39e-05): 0.000721 ± 4e-05 S/m | electrical conductivity (298.15 K, m1 = 0.0001136): 0.000798 ± 4.4e-05 S/m | electrical conductivity (298.15 K, m1 = 0.0001332): 0.000876 ± 4.9e-05 S/m | electrical conductivity (298.15 K, m1 = 0.0001528): 0.000954 ± 7e-05 S/m | electrical conductivity (298.15 K, m1 = 0.0001724): 0.00103 ± 6.5e-05 S/m | electrical conductivity (298.15 K, m1 = 0.000192): 0.00111 ± 7.2e-05 S/m | electrical conductivity (298.15 K, m1 = 0.0002117): 0.00119 ± 6.6e-05 S/m | electrical conductivity (298.15 K, m1 = 0.0002313): 0.00127 ± 7.1e-05 S/m | electrical conductivity (298.15 K, m1 = 0.0002509): 0.00134 ± 7.4e-05 S/m | electrical conductivity (298.15 K, m1 = 0.0002705): 0.00142 ± 7.8e-05 S/m | electrical conductivity (298.15 K, m1 = 0.0002902): 0.0015 ± 0.00023 S/m | electrical conductivity (298.15 K, m1 = 0.0003155): 0.00156 ± 0.0003 S/m | electrical conductivity (298.15 K, m1 = 0.0003409): 0.00161 ± 9.1e-05 S/m | electrical conductivity (298.15 K, m1 = 0.0003662): 0.00167 ± 0.00011 S/m | electrical conductivity (298.15 K, m1 = 0.0003915): 0.00173 ± 9.6e-05 S/m | electrical conductivity (298.15 K, m1 = 0.0004169): 0.00179 ± 0.0001 S/m | electrical conductivity (298.15 K, m1 = 0.0004422): 0.00185 ± 0.00017 S/m | electrical conductivity (298.15 K, m1 = 0.0004676): 0.0019 ± 0.00011 S/m | electrical conductivity (298.15 K, m1 = 0.0004929): 0.00196 ± 0.00013 S/m | electrical conductivity (298.15 K, m1 = 0.0005183): 0.00202 ± 0.00011 S/m | electrical conductivity (298.15 K, m1 = 0.0005436): 0.00208 ± 0.00011 S/m | electrical conductivity (298.15 K, m1 = 0.000569): 0.00213 ± 0.00012 S/m | electrical conductivity (298.15 K, m1 = 0.0005943): 0.00219 ± 0.00012 S/m | electrical conductivity (298.15 K, m1 = 0.0006197): 0.00225 ± 0.00012 S/m | electrical conductivity (298.15 K, m1 = 0.000645): 0.00231 ± 0.00013 S/m | electrical conductivity (298.15 K, m1 = 0.0006703): 0.00236 ± 0.00013 S/m | electrical conductivity (298.15 K, m1 = 0.0006957): 0.00242 ± 0.00013 S/m | electrical conductivity (298.15 K, m1 = 0.000721): 0.00248 ± 0.00014 S/m | electrical conductivity (298.15 K, m1 = 0.0007464): 0.00254 ± 0.00014 S/m | electrical conductivity (298.15 K, m1 = 0.0007717): 0.0026 ± 0.00014 S/m | surface tension liquid-gas (303.15 K, m1 = 1.08e-05): 52.51 ± 0.69 mN/m | surface tension liquid-gas (303.15 K, m1 = 1.543e-05): 49.91 ± 0.66 mN/m | surface tension liquid-gas (303.15 K, m1 = 3.087e-05): 44.82 ± 0.6 mN/m
